{"source": "patent US7259146B2", "about": "“Neuroprotective peptides” (Ortho-McNeil Pharmaceutical, Inc., priority 2000, dated 2007)", "key": {"[1]": {"tested_on": "rat cerebral cortical neurons", "test": "Glutamate toxicity assay in primary cortical cultures", "format": "cell-based", "from_the_text": "(§1) Dissociated hippocampal and cortical cell cultures were established from embryonic day 18 rat fetuses as previously described (Mattson et al., 1994). Briefly, fetuses were removed via cesarean section from pregnant moms (Sprague-Dawley) anesthetized with halothane according to the AVMA Panel on Euthanasia. Pups were decapitated and the brains were removed and placed in HEPES-buffered Hank's Balanced Salt solution (HBSS; Gibco). The hippocampi and cortices were dissected out and pooled according to tissue-type. Tissue was trypsinized for 15 min (1 mg/ml trypsin-HBSS; Worthington), rinsed with fresh HBSS, incubated in trypsin inhibitor (1 mg/ml; Sigma) for 5 min, rinsed again with fresh HBSS and then triturated in 1 ml fresh HBSS with a fire-polished glass pipette. Dissociated cells were seeded at 30,000 cells/well onto poly-D-lysine coated 96-well plates (Collaborative BioScience). Each well contained 100 μl of Eagle's Minimal Essential Media (MEM; Gibco) supplemented with 26 mM NaHCO3 (Sigma), 56 mM glucose (Sigma), 15 mM KCl (Sigma), 1 mM sodium pyruvate (Sigma), 1.1 mM L-glutamine (Sigma), 10% (v/v) heat-inactivated fetal bovine serum (Hyclone), and 0.001% gentamicin sulfate (Sigma) (pH 7.4). Cells were allowed to attach for 24 h in a humidified 37° C. 5% CO2 incubator before experimental treatment. The culture media was aspirated and exchanged with fresh media every three days.\nCortical cells were seeded at 200,000 cells/dish onto polyethylenimine-coated 35 mm culture dishes. Each dish contained 1.5 ml MEM supplemented as described above. On the seventh day in culture, four fields per pre-marked dish were visualized with a Nikon Diaphot inverted microscope (10×magnification) and photographed prior to experimental treatment. […] Cell survival was measured by counting viable cells in each field pre- and post-experimental treatment. […] Data were expressed as percent of control (vehicle; mean±SD)."}, "[2]": {"tested_on": "rat cerebral cortical cultures", "test": "Neurite outgrowth assay (MAP2-FITC immunofluorescence), cortical cultures", "format": "cell-based", "from_the_text": "as §1\n(§2) Twenty-four hours after plating, cultures were treated with vehicle (PBS+0.1% BSA), 100 ng of various growth factors (brain derived neurotrophic factor (BDNF; Promega), glial-derived neurotrophic factor (GDNF; Promega), nerve growth factor (NGF; Boehringer Mannheim), basic fibroblast growth factor (bFGF; Boehringer Mannheim), insulin-like growth factor-1 (IGF-1; Boehringer Mannheim), neurotrophin-3 (NT3; Calbiochem), neurotrophin-4 (NT4; Calbiochem), ciliary neurotrophic factor (CNTF; Calbiochem), epidermal growth factor (EGF; Calbiochem), vascular endothelial growth factor (VEGF; Calbiochem)), or rhEPO (prepared same as above; 10 fM-10 nM)). Each treatment condition was run in quadruplicate or octuplicate. On the third day in culture, the media was aspirated off and replaced with fresh media and test compound. At one week in culture, the cells were fixed with 10% phosphate-buffered formalin for 15 min, then rinsed with DPBS (Sigma) and placed in blocking serum for 30 min (horse serum; 1:50 dilution in DPBS; Vector Labs). Cultures were rinsed again with DPBS and then incubated in primary antibody for 2 hr (microtubule-associated protein-2 (MAP-2) is a selective marker for dendritic processes; anti-mouse monoclonal (Chemicon); 1:1000 dilution of MAP-2 in antibody diluent (Zymed)). Negative control wells were incubated in antibody diluent alone. Background signal was determined by blank wells (cell-free) incubated with or without antibody. Cultures were rinsed again with DPBS and then placed in fluorescein for 1 hr (FITC; anti-mouse IgG; rat adsorbed; 1:50 dilution in DPBS; Vector Labs). Cultures were rinsed a final time with DPBS and then the plates were read on a Cytofluor 4000 fluorescence plate reader. Neurite outgrowth was expressed as percent change from control (vehicle; mean fluorescence±SD).\n(§3) Dissociated hippocampal and cortical cell cultures were established from embryonic day 18 rat fetuses as previously described (Mattson et al., 1994). Briefly, fetuses were removed via cesarean section from pregnant moms (Sprague-Dawley) anesthetized with halothane according to the AVMA Panel on Euthanasia. Pups were decapitated and the brains were removed and placed in HEPES-buffered Hank's Balanced Salt solution (HBSS; Gibco). The hippocampi and cortices were dissected out and pooled according to tissue-type. […]"}, "rat hippocampal cultures": {"tested_on": "rat hippocampal cultures", "test": "Neurite outgrowth assay (MAP2-FITC immunofluorescence), hippocampal cultures", "format": "cell-based", "from_the_text": "as §1, §2, §3"}, "PC-12 cells": {"tested_on": "PC-12 cells", "test": "Glutamate toxicity in PC-12 cells (trypan blue exclusion)", "format": "cell-based, rat", "settings": "for protection against glutamate-induced cell death (in words): pre-treatment 24 hr, 200 μM glutamate", "procedure": "PC-12 cells (from a rat Pheochromocytoma) were cultured on poly-D-Lysine coated tissue culture plastic in DMEM containing 10% FBS and 5% Horse serum. To induce the neuronal phenotype in PC-12 cells, serum was removed and the cells were treated with NGF (50 ng/ml). Cells were grown for 7 days in the presence of the NGF then used for experiments. PC-12 cells were cultured as described above. 24 hr prior to insult, cells were treated with rhEPO at concentrations ranging from 1 pm to 1 nm. On the day of the experiment, cells were exposed to 200 μM glutamate for 30 min. Cells were then washed 2 times with fresh media to remove the glutamate and cultured in fresh media containing NGF but no EPO. After 24 hr cells were assayed for viability using a trypan blue exclusion assay. […] Cells were then washed gently with PBS, then fixed with 10% formalin. Cell viability was determined by counting the total number of cells vs. the number of trypan blue positive (dead) cells."}, "[3]": {"settings": "cited from earlier work"}, "[4]": {"test": "Plasma determinations (EPO ELISA) in ischemia studies", "format": "in vivo, rat", "from_the_text": "Plasma Determinations: Blood samples were collected from each rat via the orbital sinus at the time of sacrifice. Plasma was separated out, frozen and analyzed by EPO ELISA for determination of plasma concentration (U/ml)."}}, "note": "Entries after “also recorded” stand apart in the source; their conditions may differ.", "data": [{"substance": "EPO: purified, recombinant human EPO (rhEPO), formulated and distributed under the trademarks EPREX, ERYPO or PROCRIT", "values": [{"measurement": "concentration of greatest neuroprotective effect", "setting": "[1]; cell survival greater than or equal to vehicle (no glutamate) treated cultures", "result": "greatest effects observed at pM concentrations"}, {"measurement": "neuronal survival / protection against glutamate toxicity (in words)", "setting": "[1]; pretreatment 24 h prior to 100 μM glutamate", "result": "significant increase in neuronal survival; also recorded: protects rat cerebral cortical neurons against glutamate toxicity"}, {"measurement": "cell survival, maximal increase over parallel cultures treated with glutamate alone", "setting": "[1]; pretreatment 24 h prior to 100 μM glutamate, counted 24 h post-glutamate", "result": "approximately 200%"}, {"measurement": "neurite outgrowth (in words)", "setting": "[2]", "result": "significant increase in neurite outgrowth; also recorded: promotes neurite outgrowth"}, {"measurement": "concentration of maximal neurite outgrowth promoting activity", "setting": "[2]; concentration dependent", "result": "maximal activity observed at pM levels"}, {"measurement": "ability to increase neurite outgrowth compared to known growth factors", "setting": "[2]; growth factors 100 ng", "result": "greater than or equal to that of known growth factors; also recorded: superior in inducing neurite outgrowth relative to the majority of known growth factors"}, {"measurement": "neurite outgrowth response over control", "setting": "[2]; rhEPO 10 fM-10 nM, one week in culture", "result": "15–29%"}, {"measurement": "overall neurite outgrowth response, hippocampal versus cortical cultures", "setting": "rat hippocampal cultures; comparison of hippocampal and cortical cultures", "result": "larger outgrowth response in the hippocampal cultures"}, {"measurement": "neurite outgrowth (in words)", "setting": "rat hippocampal cultures; hippocampal cultures", "result": "significant increase in neurite outgrowth; also recorded: promotes neurite outgrowth"}, {"measurement": "concentration of maximal neurite outgrowth promoting activity", "setting": "rat hippocampal cultures; hippocampal cultures, concentration dependent", "result": "maximal activity observed at pM levels"}, {"measurement": "neurite outgrowth response over control", "setting": "rat hippocampal cultures; hippocampal cultures, rhEPO 10 fM-10 nM, one week in culture", "result": "12–44%"}, {"measurement": "outgrowth promoting activity compared to known growth factors", "setting": "rat hippocampal cultures; hippocampal cultures, growth factors 100 ng", "result": "superior to several growth factors including BDNF, NGF and VEGF"}, {"measurement": "cell survival, Trypan Blue exclusion assay", "setting": "PC-12 cells; 1 to 10 pm given 24 hours prior to glutamate (200 um), p<0.001", "result": "significantly increased cell survival"}, {"measurement": "peak concentration for the neuroprotective effect", "setting": "PC-12 cells; glutamate toxicity", "result": 10, "unit": "pm"}, {"measurement": "neuroprotective effect at 1 nm", "setting": "PC-12 cells; glutamate toxicity, 1 nm", "result": "no significant effect"}, {"measurement": "dose response curve for the neuroprotective effect", "setting": "PC-12 cells; glutamate toxicity, protection decreasing above 10 pm", "result": "bi-phasic; also recorded: decreased at higher doses"}, {"measurement": "protection against glutamate-induced cell death (in words)", "setting": "PC-12 cells", "result": "significant decrease in cell death"}, {"measurement": "protection against glutamate-induced cell death (in words)", "setting": "PC-12 cells; listed as rhEPO", "result": "protects rat PC12 cells against glutamate-induced cell death"}, {"measurement": "tolerability in studies conducted to date", "setting": "[3]; patients", "result": "well tolerated"}, {"measurement": "antibody titers against Epoetin alfa", "setting": "[3]; subjects treated for up to 2 years", "result": "No antibody titers"}, {"measurement": "plasma concentrations (terminal)", "setting": "[4]; Study I, continuous infusion", "result": "correlated with the protective effect"}, {"measurement": "plasma concentrations (terminal)", "setting": "[4]; Study II, single iv bolus 1000, 2500 or 5000 U/kg", "result": "low"}]}]}
